Literature values as cited in article PMC7220402 (Medicine, 2020).

For COc1c(C)c2c(c(O)c1C/C=C(\C)CCC(=O)O)C(=O)OC2 [MPA, mycophenolic acid], the “Variation in dose-normalized MPA exposure” value is given as 10 fold.
